Test results from patent US20080293686A1, “SEMI-SOLID SYSTEMS CONTAINING AZETIDINE DERIVATIVES” (AVENTIS PHARMA S.A., priority 2003, published 2008).
In brackets after ≈: the same amount, converted by molar mass.

Tests used:
[1] = Solubility of compound (Ic) in lipids and other pharmaceutical cosolvents; format: physicochemical; settings: in Soyabean oil
Excerpt: The first step was to determine the solubility of compound (Ic) in an exhaustive series of lipids and other pharmaceutical cosolvents including vegetable oils, lipidic components, surfactants, hydrophilic components and phospholipids. The protocol of the solubility measurement is reported in the annex.

[2] = Colloidal stability and self-emulsifying properties after incubation with simulated gastrointestinal fluids and filtration; format: physicochemical; settings: diluted 1:50, 2 hours at 37° C., theoretical concentration 200 μg/ml
Protocol: The following simulated media were selected for the present experiment: • Gastric medium USP, pH 1.2 • Fasted intestinal medium, pH 6.8 (ref. Dressman et al., Pharm. Res., 1998) • Fed intestinal medium, pH 5 (ref. Dressman et al., Pharm. Res., 1998)
All Compound (Ic) formulations (400 mg) were diluted 1:50 in the gastric, fasted intestinal or fed intestinal medium (20 ml), then incubated during 2 hours at 37° C. under mechanical stirring (300 rpm). The drug concentration was determined by HPLC before and after filtration (2 μm).
The aim of this second part of the study was to evaluate the colloidal stability and the self-emulsifying properties of the emulsion/microemulsion/micellar solution of the (Ic) formulation after incubation in the GI media. Thus, the sample was filtered onto 2 μm (able to retain oil droplets >2 μm, as well as drug crystals >2 μm) then dosed by HPLC. The filter size (2 μm) has been chosen after a screening with different filter sizes (0.45, 2 and 5 μm) tested on the aqueous solution of the drug. […] In summary, the filtered fraction was approximately 1% in the gastric medium, 2% in the fasted intestinal medium, 4.5-5.5% in the fed intestinal medium.

In the case of `CS(=O)(=O)C(=C1CN(C(c2ccc(Cl)cc2)c2ccc(Cl)cc2)C1)c1cc(F)cc(F)c1` [Compound (Ic)], the solubility [1] was 31.8 mg/mL (≈ 64.3 mM), the “Compound (Ic) recovered after filtration (2 μm) after previous incubation with GI media” value (“Compound (Ic) recovered after filtration” below) ([2]; Fasted intestinal pH 6.8) was 4.2 µg/mL and the “Compound (Ic) recovered after filtration” value ([2]; Fed intestinal pH 5) was 8.8 µg/mL. For the same compound, the “Compound (Ic) recovered after filtration” value ([2]; Gastric medium) was 1.9 µg/mL.
